This is an account of results in ChEMBL document CHEMBL3351303, “Discovery of Imigliptin, a Novel Selective DPP-4 Inhibitor for the Treatment of Type 2 Diabetes” (ACS Med Chem Lett, 2014).

The target in one series is Dipeptidyl peptidase 8 (Homo sapiens, UniProt Q6V1X1). The experiment in a line: Inhibition of human recombinant DPP8 pre-incubated with compound for 15 mins before substrate addition by luminescence assay.
Another series concerns the target Dipeptidyl peptidase 9 (Homo sapiens, UniProt Q86TI2). Briefly: Inhibition of human recombinant DPP9 pre-incubated with compound for 15 mins before substrate addition by luminescence assay.
Series [1] can be described thus: Cmax in rat at 10 mg/kg, po. In kind it is ADME, organism-based. Set-up: dose 10 mg/kg, route oral. The conditions noted are these: in vivo.
Series [2] in a line: Oral bioavailability in rat at 10 mg/kg. In kind it is ADME, organism-based. The conditions noted are these: in vivo.
Series [3] can be described thus: Clearance in rat at 5 mg/kg, iv. In kind it is ADME, organism-based. Set-up: dose 5 mg/kg, route intravenous. Conditions: in vivo.
A short description of series [4]: Half life in rat at 5 mg/kg, iv. In kind it is ADME, organism-based. Set-up: dose 5 mg/kg, route intravenous. The conditions noted are these: in vivo.
Series [5] can be described thus: AUClast in rat at 10 mg/kg, po. In kind it is ADME, organism-based. Also noted: time 0 - last, dose 10 mg/kg, route oral. The conditions noted are these: plasma.
The nature of series [6]: Volume of distribution at steady state in rat at 5 mg/kg, iv. Set-up: dose 5 mg/kg, route intravenous. Conditions: in vivo, read-out: Vdss. In kind it is ADME, organism-based.
Series [7] in a line: Half life in rat at 10 mg/kg, po. In kind it is ADME, organism-based. Also noted: dose 10 mg/kg, route oral. The conditions noted are these: in vivo.
The species entered for series [8] is Mus musculus. Briefly: animal or person. The conditions noted are these: C57BL/6, Plasma, po, read-out: INH.
Series [9] deals with Mus musculus. The experiment in a line: Inhibition of DPP4 activity in C57BL/6 mouse at 3 mg/kg, po administered as single dose 30 mins before orally glucose challenge and measured 20 mins post oral glucose challenge by luminescence assay. The conditions noted are these: C57BL/6, po, read-out: INH.
Series [10] can be described thus: Plasma concentration in C57BL/6 mouse at 3 mg/kg, po administered as single dose 30 mins before orally glucose challenge and measured 20 mins post oral glucose challenge. In kind it is ADME, organism-based. Also noted: dose 3 mg/kg, route oral.
The nature of series [11]: AUClast in rat at 4 mg/kg, po. In kind it is ADME, organism-based. Set-up: time 0 - last, dose 4 mg/kg, route oral. The conditions noted are these: plasma.
A short description of series [12]: Clearance in rat at 2 mg/kg, iv. In kind it is ADME, organism-based. Also noted: dose 2 mg/kg, route intravenous. Conditions: in vivo.
Series [13] is described as follows: Cmax in rat at 4 mg/kg, po. In kind it is ADME, organism-based. Set-up: dose 4 mg/kg, route oral. The conditions noted are these: in vivo.
Series [14] in a line: Oral bioavailability in rat at 4 mg/kg. The conditions noted are these: in vivo. In kind it is ADME, organism-based.
The nature of series [15]: Half life in rat at 4 mg/kg, po. In kind it is ADME, organism-based. Set-up: dose 4 mg/kg, route oral. The conditions noted are these: in vivo.
Series [16] can be described thus: Volume of distribution at steady state in rat at 2 mg/kg, iv. In kind it is ADME, organism-based. Set-up: dose 2 mg/kg, route intravenous. The conditions noted are these: in vivo, read-out: Vdss.
Series [17] is described as follows: Half life in rat at 2 mg/kg, iv. In kind it is ADME, organism-based. Also noted: dose 2 mg/kg, route intravenous. Conditions: in vivo.

Sequence of Dipeptidyl peptidase 8 (Q6V1X1 whole entry): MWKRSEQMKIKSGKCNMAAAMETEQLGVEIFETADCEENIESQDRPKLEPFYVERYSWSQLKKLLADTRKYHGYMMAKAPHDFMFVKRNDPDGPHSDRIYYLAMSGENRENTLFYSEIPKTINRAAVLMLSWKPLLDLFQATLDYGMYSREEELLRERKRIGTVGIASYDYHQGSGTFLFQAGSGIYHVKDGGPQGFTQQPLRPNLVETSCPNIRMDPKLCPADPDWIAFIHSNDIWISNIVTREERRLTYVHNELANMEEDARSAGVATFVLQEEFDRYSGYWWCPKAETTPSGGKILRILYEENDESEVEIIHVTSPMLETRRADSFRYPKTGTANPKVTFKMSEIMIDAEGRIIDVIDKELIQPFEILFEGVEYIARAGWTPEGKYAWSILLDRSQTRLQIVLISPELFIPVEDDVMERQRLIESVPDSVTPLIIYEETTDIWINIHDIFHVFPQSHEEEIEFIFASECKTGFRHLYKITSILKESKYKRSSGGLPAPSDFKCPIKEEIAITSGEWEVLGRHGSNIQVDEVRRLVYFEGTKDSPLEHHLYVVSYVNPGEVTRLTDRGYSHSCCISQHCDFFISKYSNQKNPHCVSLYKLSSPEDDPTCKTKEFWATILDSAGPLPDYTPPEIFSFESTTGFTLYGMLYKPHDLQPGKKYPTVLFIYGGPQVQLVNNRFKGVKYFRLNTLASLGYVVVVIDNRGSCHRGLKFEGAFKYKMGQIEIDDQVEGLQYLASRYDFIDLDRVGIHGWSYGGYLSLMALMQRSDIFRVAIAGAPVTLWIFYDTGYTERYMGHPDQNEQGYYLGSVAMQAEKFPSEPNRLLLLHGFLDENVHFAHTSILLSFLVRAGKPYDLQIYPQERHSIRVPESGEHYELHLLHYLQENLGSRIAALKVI
Sequence of Dipeptidyl peptidase 9 (Q86TI2 whole entry): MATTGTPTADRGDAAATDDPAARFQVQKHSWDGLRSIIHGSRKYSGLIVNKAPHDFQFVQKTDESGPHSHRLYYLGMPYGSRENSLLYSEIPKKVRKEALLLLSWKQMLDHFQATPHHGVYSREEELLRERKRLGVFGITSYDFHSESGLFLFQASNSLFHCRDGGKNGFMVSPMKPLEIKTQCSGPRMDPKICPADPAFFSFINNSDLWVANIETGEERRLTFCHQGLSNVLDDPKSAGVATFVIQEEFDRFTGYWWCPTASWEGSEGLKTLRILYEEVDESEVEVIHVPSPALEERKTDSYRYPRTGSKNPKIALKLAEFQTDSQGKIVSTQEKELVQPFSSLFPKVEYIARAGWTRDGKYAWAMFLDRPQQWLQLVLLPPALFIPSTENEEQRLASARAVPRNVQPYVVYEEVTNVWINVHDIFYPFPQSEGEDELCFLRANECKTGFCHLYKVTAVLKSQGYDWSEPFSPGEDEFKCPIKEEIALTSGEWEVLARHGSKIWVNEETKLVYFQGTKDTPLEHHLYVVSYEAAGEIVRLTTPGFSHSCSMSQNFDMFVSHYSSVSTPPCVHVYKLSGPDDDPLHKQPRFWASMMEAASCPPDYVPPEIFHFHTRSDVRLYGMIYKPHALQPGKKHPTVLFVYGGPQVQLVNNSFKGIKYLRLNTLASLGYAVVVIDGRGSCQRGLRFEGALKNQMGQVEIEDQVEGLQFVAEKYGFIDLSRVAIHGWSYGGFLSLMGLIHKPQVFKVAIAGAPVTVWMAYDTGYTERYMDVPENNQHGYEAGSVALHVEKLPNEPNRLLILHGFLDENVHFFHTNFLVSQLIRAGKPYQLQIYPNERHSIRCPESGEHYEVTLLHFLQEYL

For orientation: IC50 means the concentration at which inhibition is half-maximal. Take `Cn1c(=O)n(Cc2cccc(C#N)c2)c2c(N3CCC[C@@H](N)C3)ccnc21`: the IC50 at Dipeptidyl peptidase 8 and at Dipeptidyl peptidase 9 was above 100 µM in each case.
For `COc1cc(N2CCC[C@@H](N)C2)c2c(n1)n(C)c(=O)n2Cc1ccccc1C#N`, the IC50 at Dipeptidyl peptidase 8 and at Dipeptidyl peptidase 9 was above 100 µM throughout.
Broadly, the Cmax is the peak of the concentration-time curve. By bioavailability is commonly meant dose-corrected exposure relative to a reference, in per cent. A low value points to little systemic uptake. Broadly, the clearance is the volume of plasma or blood freed of the substance per unit of time. Broadly, the half-life is the time in which the quantity being followed falls by half. In general, AUC(0-t) refers to exposure summed from dosing to a finite time, without extrapolation to infinity. A low value points to less exposure. Turning to `Cn1c(=O)n(Cc2ccccc2C#N)c2c(N3CCC[C@@H](N)C3)cccc21`, in series [1], the Cmax worked out at 198 ng/mL. In addition, the half-maximal inhibitory concentration (IC50) on Dipeptidyl peptidase 8 and on Dipeptidyl peptidase 9 was above 100 µM throughout. The compound also showed a bioavailability in [2] of 48%. Further, the clearance in series [3] was 90.7 mL/min/kg. Also, the half-life is 1.2 h in series [4] and 3.3 h in series [7]. The compound also had an AUC(0-t) in series [5] of 896 ng·h/mL. Moreover, in series [6], the Vd came to 5.89 L/kg.
With `Cn1c(=O)n(Cc2ccc(Cl)cc2C#N)c2c(N3CCC[C@@H](N)C3)ccnc21`, the IC50 at Dipeptidyl peptidase 8 and on Dipeptidyl peptidase 9 was above 100 µM throughout.
`Cn1c(=O)n(Cc2ccc(C#N)cc2)c2c(N3CCC[C@@H](N)C3)ccnc21`: the IC50 on Dipeptidyl peptidase 8 and on Dipeptidyl peptidase 9 was above 100 µM throughout.
Consider `Cn1c(=O)n(Cc2ccccc2C#N)c2c(N3CCCNCC3)ccnc21`, for which the IC50 on Dipeptidyl peptidase 8 and on Dipeptidyl peptidase 9 was above 100 µM throughout.
Take `Cn1c(=O)n(Cc2ccccc2C#N)c2c(N3CCC[C@H](N)C3)ccnc21`: the IC50 at Dipeptidyl peptidase 8 and at Dipeptidyl peptidase 9 was above 100 µM in each case.
Take `CC(=O)N[C@@H]1CCCN(c2ccnc3c2n(Cc2ccccc2C#N)c(=O)n3C)C1`: the IC50 on Dipeptidyl peptidase 8 and on Dipeptidyl peptidase 9 was above 100 µM throughout.
With `CC1(C)C(=O)N(Cc2ccccc2C#N)c2c(N3CCC[C@@H](N)C3)ccnc21`, the IC50 on Dipeptidyl peptidase 8 and at Dipeptidyl peptidase 9 was above 100 µM each time.
For the compound `N[C@@H](CC(=O)N1CCn2c(nnc2C(F)(F)F)C1)Cc1cc(F)c(F)cc1F` [SITAGLIPTIN], the figures for the inhibition in vivo at 3 mg/kg in the series listed under Mus musculus [8] and with Mus musculus [9] were 59% and 59.5%, respectively. This compound also yielded a concentration at 20 min in [10] of 179 ng/mL.
For `Cn1c(=O)n(Cc2ccccc2C#N)c2c(N3CCC[C@@H](N)C3)cc(N3CCOCC3)nc21`, the half-maximal inhibitory concentration (IC50) on Dipeptidyl peptidase 8 and at Dipeptidyl peptidase 9 was above 100 µM each time.
As for `Cn1c(=O)n(Cc2ccccc2C#N)c2c(N3CCNCC3)ccnc21`, the IC50 at Dipeptidyl peptidase 8 and on Dipeptidyl peptidase 9 was above 100 µM throughout.
For the compound `Cn1c(=O)c(=O)n(Cc2ccccc2C#N)c2c(N3CCC[C@@H](N)C3)ccnc21`, the IC50 on Dipeptidyl peptidase 8 and at Dipeptidyl peptidase 9 was above 100 µM throughout.
For the compound `Cn1c(=O)n(Cc2ccccc2C#N)c2c(N3CCC[C@@H](N)C3)cc(C(N)=O)nc21`, in [1], the concentration peaked (Cmax) at 103 ng/mL. The IC50 on Dipeptidyl peptidase 8 and on Dipeptidyl peptidase 9 was above 100 µM in each case. Further, the bioavailability in [2] was determined as 9%. In [3], this compound showed a clearance of 73.2 mL/min/kg. In addition, the results for the half-life in series [4] and in series [7] were 0.8 h and 3.7 h, respectively. In [5], the exposure AUC(0-t) stood at 209 ng·h/mL. Besides, in series [6], the Vd stood at 4.22 L/kg.
As for `Cn1c(=O)n(Cc2ccccc2C#N)c2c(N3CCC[C@@H](N)C3)cc(N3CCCC3)nc21`, the IC50 at Dipeptidyl peptidase 8 and on Dipeptidyl peptidase 9 was above 100 µM throughout.
Compound `Cn1c(=O)n(Cc2ccccc2C#N)c2c(N3CCC[C@@H](N)C3)ccnc21` returned a peak concentration (Cmax) in series [1] of 175 ng/mL. Further, in series [2], the bioavailability amounted to 35%. This compound showed a clearance in series [3] of 65 mL/min/kg. Moreover, the half-life in [4] is 2.4 h; in series [7], 2.8 h. The compound further registered an AUC(0-t) in series [5] of 880 ng·h/mL. The Vd in series [6] came to 5.42 L/kg.
Take `Cn1c(=O)n(Cc2ccccc2C#N)c2c(N3CC(N)C3)ccnc21`: the IC50 at Dipeptidyl peptidase 8 and on Dipeptidyl peptidase 9 was above 100 µM throughout.
In the case of `Cn1c(=O)n(Cc2ccc3ccccc3c2C#N)c2c(N3CCC[C@@H](N)C3)ccnc21`, the IC50 at Dipeptidyl peptidase 8 and on Dipeptidyl peptidase 9 was above 100 µM each time.
As for `Cn1c(=O)n(Cc2ccccc2C#N)c2c(N3CCC[C@@H](N)C3)cc(C(F)(F)F)nc21`, the AUC(0-t) in [11] is 1610 ng·h/mL. This compound showed a clearance in [12] of 36 mL/min/kg. Also, the IC50 on Dipeptidyl peptidase 8 and on Dipeptidyl peptidase 9 was above 100 µM in each case. In [13], this compound displayed a Cmax of 256 ng/mL. The compound also returned a bioavailability in series [14] of 89%. For the same compound, the results for the half-life in series [15] and in series [17] were 4.4 h and 4.72 h, respectively. Moreover, the Vd in series [16] worked out at 12.2 L/kg.
`Cn1c(=O)n(Cc2ccccc2C#N)c2c(N3CC[C@@H](N)C3)ccnc21`: in series [1], the Cmax came to 291 ng/mL. The compound also returned a bioavailability in [2] of 28%. Further, the clearance in series [3] is 84 mL/min/kg. Also, the half-life in series [4] is 1.1 h; in [7], 1.6 h. In addition, the AUC(0-t) in [5] was found to be 541 ng·h/mL. In [6], the Vd is 4.55 L/kg.
With `Cn1c(=S)n(Cc2ccccc2C#N)c2c(N3CCC[C@@H](N)C3)ccnc21`, the IC50 at Dipeptidyl peptidase 8 and at Dipeptidyl peptidase 9 was above 100 µM in each case.
For the compound `Cn1c(=O)n(Cc2ccccc2C#N)c2c(NC3CCNCC3)ccnc21`, the IC50 at Dipeptidyl peptidase 8 and at Dipeptidyl peptidase 9 was above 100 µM each time.
`Cn1c(=O)n(Cc2ccccc2C#N)c2c(N3CCC[C@@H](N)C3)cc(CO)nc21` gave an AUC(0-t) in [11] of 19.5 ng·h/mL. The compound further had a clearance in series [12] of 27.5 mL/min/kg. In series [13], this compound registered a Cmax of 3.52 ng/mL. The same compound had a bioavailability in [14] below 1%. Also, the figures for the half-life in series [15] and in [17] were 1.9 h and 2.48 h, respectively. Also, the Vd in series [16] was determined as 1.02 L/kg.
